Structures are written as SMILES. pIC50: −log10 of the molar value.

The target of this test is human plasma kallikrein (Homo sapiens, UniProt P03952). The test is described as follows: Kallikrein inhibition FLINT assay with quenched AMC peptide substrate Z-Gly-Pro-Arg-AMC (end point EP or kinetic KIN reads). The format is biochemical. The following applies: kinetic reads at 5 min intervals over 30 min; read-out: Kallikrein (KIN) IC50. The gist of the method: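 Enzyme and compound were preincubated 30 min before adding 50 μM AMC substrate in pH 7.5 Tris/NaCl/CaCl2/BSA/CHAPS buffer. AMC release was read at 30 min endpoint or every 5 min.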
Sequence of human plasma kallikrein (P03952 391-638 limits assumed): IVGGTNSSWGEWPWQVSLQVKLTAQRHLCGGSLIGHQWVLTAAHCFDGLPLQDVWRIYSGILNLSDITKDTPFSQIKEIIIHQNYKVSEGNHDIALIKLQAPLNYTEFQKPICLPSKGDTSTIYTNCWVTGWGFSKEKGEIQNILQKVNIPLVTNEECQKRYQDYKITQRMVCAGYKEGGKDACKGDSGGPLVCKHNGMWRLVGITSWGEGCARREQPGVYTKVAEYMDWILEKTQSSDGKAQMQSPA
Sequence of human plasma kallikrein (P03952 20-390 partner limits assumed): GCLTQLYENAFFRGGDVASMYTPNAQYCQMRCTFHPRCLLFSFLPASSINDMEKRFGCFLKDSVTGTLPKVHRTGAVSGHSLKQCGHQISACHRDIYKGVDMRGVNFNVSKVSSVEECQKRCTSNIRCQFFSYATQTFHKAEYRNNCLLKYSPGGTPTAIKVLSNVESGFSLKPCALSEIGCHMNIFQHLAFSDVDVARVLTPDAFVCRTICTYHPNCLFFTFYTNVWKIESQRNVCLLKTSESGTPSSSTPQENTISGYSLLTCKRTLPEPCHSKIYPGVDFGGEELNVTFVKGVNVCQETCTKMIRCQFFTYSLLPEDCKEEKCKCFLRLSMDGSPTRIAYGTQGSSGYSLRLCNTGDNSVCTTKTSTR
Take `[O-][n+]1cc(-c2cc(Cl)ccc2-n2cnnn2)ccc1C(Cc1ccc(Cl)cc1)n1cc(-c2cc(Cl)ccc2-n2cnnn2)cn1` (stereo not shown) [Example P152]: the pIC50 was 6.05.
As to `CCC(c1ccc(-c2c(-n3cnnn3)ccc(Cl)c2F)c[n+]1[O-])n1cc(-c2ccc(NC(=O)OC)cc2)cn1` (stereo not shown) [Example P153], the pIC50 was 6.97.
In the case of `CCCC(c1ccc(-c2c(-n3cnnn3)ccc(Cl)c2F)c[n+]1[O-])n1cc(-c2ccc(NC(=O)OC)cc2)cn1` (stereo not shown) [Example P156] it was 7.06; in that of `COc1cc(C(CC2CC2)n2cc(-c3cnn(C(C)C)c(=O)c3)cn2)[n+]([O-])cc1-c1c(-n2cnnn2)ccc(Cl)c1F` (stereo not shown) [Example P161], 7.12; in that of `Nc1ncc(-c2cnn(C(Cc3ccc(Cl)cc3)c3ccc(-c4c(-n5cnnn5)ccc(Cl)c4F)c[n+]3[O-])c2)cc1F` (stereo not shown) [Example P162], 8.17.
In the case of `O=C(O)c1ccc(-c2cnn(C(CN3CCCC3=O)c3ccc(-c4cc(Cl)ccc4-n4cnnn4)c[n+]3[O-])c2)cc1` (stereo not shown) [Example P163] it was 7.57.
For `COC(=O)Nc1ccc(-c2cnn(C(Cc3ccccc3OC)c3ccc(-c4c(-n5cnnn5)ccc(Cl)c4F)c[n+]3[O-])c2)cc1` (stereo not shown) [Example P164], the pIC50 is 7.55.
Regarding `COCCC(c1ccc(-c2c(-n3cnnn3)ccc(Cl)c2F)c[n+]1[O-])n1cc(C2CCN(C(=O)OC)CC2)cn1` (stereo not shown) [Example P166], the pIC50 is 6.03.
In the case of `COC(=O)N1CCC(c2cnn(C(CC3CC3)c3ccc(-c4c(-n5cnnn5)ccc(Cl)c4F)c[n+]3[O-])c2)CC1` (stereo not shown) [Example P167] it was 6.08; in that of `CCn1ncc(-c2cnn(C(CC3CC3)c3cc(OC)c(-c4c(-n5cnnn5)ccc(Cl)c4F)c[n+]3[O-])c2)cc1=O` (stereo not shown) [Example P170], 7.33.
In the case of `[O-][n+]1cc(-c2cc(Cl)ccc2-n2cnnn2)ccc1C(Cc1ccc(Cl)cc1)n1cc(-c2ccncc2)cn1` (stereo not shown) [Example P171] it was 7.82; in that of `[O-][n+]1ccc(-c2cnn(C(Cc3ccc(Cl)cc3)c3ccc(-c4cc(Cl)ccc4-n4cnnn4)c[n+]3[O-])c2)cc1` (stereo not shown) [Example P172], 7.79.
Take `[O-][n+]1cc(-c2cc(Cl)ccc2-n2cnnn2)ccc1C(Cc1ccc(Cl)cc1)n1cc(-c2ccc(F)nc2)cn1` (stereo not shown) [Example P173]: the pIC50 is 7.11.
In the case of `[O-][n+]1cc(-c2cc(Cl)ccc2-n2cnnn2)ccc1C(Cc1ccc(Cl)cc1)n1cc(-c2ccncc2F)cn1` (stereo not shown) [Example P174], the pIC50 was 7.29.
In the case of `O=C(O)c1ccc(-c2cnn(C(CC3CC3C(=O)N3CCC(c4ccccc4)C3)c3ccc(-c4c(-n5cnnn5)ccc(Cl)c4F)c[n+]3[O-])c2)cc1` (stereo not shown) [Example P175] it was 6.44; in that of `COC(=O)Nc1ccc(-c2cnn(C(CC(C)C)c3ccc(-c4c(-n5cnnn5)ccc(Cl)c4F)c[n+]3[O-])c2)cc1` (stereo not shown) [Example P179], 6.75; in that of `COc1cc(C(CC2CC2)n2cc(-c3ccc(N)nc3F)cn2)[n+]([O-])cc1-c1c(-c2cnco2)ccc(Cl)c1F` (stereo not shown) [Example P182], 7.26.
In the case of `Cc1nc(N)ccc1-c1cnn(C(CC2CC2)c2ccc(-c3c(-n4cnnn4)ccc(Cl)c3F)c[n+]2[O-])c1` (stereo not shown) [Example P183] it was 6.73.
In the case of `[O-][n+]1cc(-c2c(-n3cnnn3)ccc(Cl)c2F)ccc1C(CC1CCCO1)n1cc(-c2ccncc2)cn1` (stereo not shown) [Example P186] it was 6.50; in that of `[O-][n+]1cc(-c2c(-n3cnnn3)ccc(Cl)c2F)ccc1C(CC1CC1)n1cc(-c2ccncc2)cn1` (stereo not shown) [Example P187], 6.91.
Consider `O=C(C1CC1CC(c1ccc(-c2c(-n3cnnn3)ccc(Cl)c2F)c[n+]1[O-])n1cc(-c2ccccc2)cn1)N1CCC(c2ccccc2)C1` (stereo not shown) [Example P196], for which the negative logarithm of the IC50 (pIC50) was 6.00.
In the case of `COC(=O)Nc1ccc(-c2cnn(C(CC3CCCO3)c3ccc(-c4c(-n5cnnn5)ccc(Cl)c4F)c[n+]3[O-])c2)cc1` (stereo not shown) [Example P203] it was 7.20; in that of `CCOCCC(c1ccc(-c2c(-n3cnnn3)ccc(Cl)c2F)c[n+]1[O-])n1cc(-c2ccc(NC(=O)OC)cc2)cn1` (stereo not shown) [Example P204], 7.35; in that of `[O-][n+]1cc(-c2cc(Cl)ccc2-n2cnnn2)ccc1C(Cc1ccc(Cl)cc1)n1cc(-c2ccnc(F)c2)cn1` (stereo not shown) [Example P210], 7.64.
In the case of `O=C(O)C1CCN(C(=O)C2CC2CC(c2ccc(-c3c(-n4cnnn4)ccc(Cl)c3F)c[n+]2[O-])n2cc(-c3ccccc3)cn2)CC1` (stereo not shown) [Example P213] it was 6.31.
In the case of `COC(=O)Nc1ccc(-c2cnn(C(Cn3cccn3)c3ccc(-c4c(-n5cnnn5)ccc(Cl)c4F)c[n+]3[O-])c2)cc1` (stereo not shown) [Example P214] it was 8.20; in that of `O=C(O)C1CCN(C(=O)C2CC2CC(c2ccc(-c3c(-n4cnnn4)ccc(Cl)c3F)c[n+]2[O-])n2cc(-c3ccccc3)cn2)CC1` (stereo not shown) [Example P215], 6.12.
As for `Cn1cc(-c2cnn(C(CC3CC3)c3ccc(-c4c(-n5cnnn5)ccc(Cl)c4F)c[n+]3[O-])c2)ccc1=O` (stereo not shown) [Example P216], the pIC50 is 6.53.
In the case of `COC(=O)Nc1ccc(-c2cnn(C(CC3CCCCO3)c3ccc(-c4c(-n5cnnn5)ccc(Cl)c4F)c[n+]3[O-])c2)cc1` (stereo not shown) [Example P220] it was 7.86.
In the case of `COC(=O)Nc1ccc(-c2cnn(C(CC3CC3C(=O)N3CCCC(c4ccccc4)C3)c3ccc(-c4c(-n5cnnn5)ccc(Cl)c4F)c[n+]3[O-])c2)cc1` (stereo not shown) [Example P221] it was 6.42; in that of `COC(=O)Nc1ccc(-c2cnn(C(CC3CC3C(=O)N3CCCC(c4ccccc4)C3)c3ccc(-c4c(-n5cnnn5)ccc(Cl)c4F)c[n+]3[O-])c2)cc1` (stereo not shown) [Example P222], 6.72.
In the case of `O=C(O)C1CCCN(C(=O)C2CC2CC(c2ccc(-c3c(-n4cnnn4)ccc(Cl)c3F)c[n+]2[O-])n2cc(-c3ccccc3)cn2)C1` (stereo not shown) [Example P223] it was 6.10.
For `O=C(O)C1CCCN(C(=O)C2CC2CC(c2ccc(-c3c(-n4cnnn4)ccc(Cl)c3F)c[n+]2[O-])n2cc(-c3ccccc3)cn2)C1` (stereo not shown) [Example P224], the pIC50 is 6.23.
In the case of `COC(=O)Nc1ccc(-c2cnn(C(CCOC(F)F)c3ccc(-c4c(-n5cnnn5)ccc(Cl)c4F)c[n+]3[O-])c2)cc1` (stereo not shown) [Example P226] it was 8.52.
Regarding `CC1CC1CC(c1ccc(-c2c(-n3cnnn3)ccc(Cl)c2F)c[n+]1[O-])n1cc(-c2ccc(C(=O)O)cc2)cn1` (stereo not shown) [Example P227], the pIC50 was 7.92.
As to `COC(=O)Nc1ccc(-c2cnn(C(COC(C)C)c3ccc(-c4c(-n5cnnn5)ccc(Cl)c4F)c[n+]3[O-])c2)cc1` (stereo not shown) [Example P229], the pIC50 was 6.57.
In the case of `COC(=O)Nc1ccc(-c2cnn(C(CC3CC3C(=O)N3CCCCC3)c3ccc(-c4c(-n5cnnn5)ccc(Cl)c4F)c[n+]3[O-])c2)cc1` (stereo not shown) [Example P231] it was 6.44; in that of `COc1ccc(C2CC2CC(c2ccc(-c3cc(Cl)ccc3-n3cnnn3)c[n+]2[O-])n2cc(-c3ccc(C(=O)O)cc3)cn2)cc1` (stereo not shown) [Example P239], 6.74; in that of `O=C1CCCN1CC(c1ccc(-c2c(-n3cnnn3)ccc(Cl)c2F)c[n+]1[O-])n1cc(-c2ccncc2)cn1` (stereo not shown) [Example P242], 8.41.
Regarding `COc1cc(C(CC2CC2C(N)=O)n2cc(-c3ccc(N)nc3C)cn2)[n+]([O-])cc1-c1c(-n2cnnn2)ccc(Cl)c1F` (stereo not shown) [Example P247], the pIC50 was 8.24.

The record behind these values is patent publication US11814364B2, “Pyridine N-oxide derivatives useful as factor XIa inhibitors” (Janssen Pharmaceutica NV, priority 2021, dated 2023).
